Assay results reported in patent US12233057B2, “Small molecules for inhibiting chemokine activity and/or cancer cells growth” (AlonBio Ltd., priority 2015, dated 2025).

How the values were obtained:
Assay in all cases: LanthaScreen europium kinase binding assay
Conditions in all cases: BKT300 at 78% purity
PIK3CA = PIK3CA (Homo sapiens, UniProt P42336)
Procedure: (§1) In order to further characterize the effect of BKT300 on cell signaling, kinase profiling of BKT300 (at 78% purity) was performed (by the Life Technologies SelectScreen® Biochemical Profiling Lab) using a LanthaScreen® europium kinase binding assay to screen 440 kinases.
(§2) The principle of the LanthaScreen® assay is depicted in FIG. 13. Binding of an Alexa Fluor® conjugate or “tracer” to a kinase is detected by addition of a europium (Eu)-labeled anti-tag antibody. Binding of the tracer and antibody to a kinase results in a high degree of FRET, whereas displacement of the tracer with a kinase inhibitor results in a loss of FRET. The kinase tracers are based on ATP-competitive kinase inhibitors, making them suitable for detection of any compounds that bind to the ATP site. Inhibitors that bind the ATP site include both Type I kinase inhibitors, which bind solely to the ATP site, and Type II inhibitors (e.g., imatinib, sorafenib, BIRB-796), which bind to both the ATP site and a second site often referred to as the allosteric site.

MAP4K2 (GCK) = MAP4K2 (GCK) (Homo sapiens, UniProt Q12851)
Procedure: as §1, §2

CDK1/cyclin A2 = CDK1/cyclin A2 (Homo sapiens, UniProt P06493)
Chain of CDK1/cyclin A2 (P06493 whole entry): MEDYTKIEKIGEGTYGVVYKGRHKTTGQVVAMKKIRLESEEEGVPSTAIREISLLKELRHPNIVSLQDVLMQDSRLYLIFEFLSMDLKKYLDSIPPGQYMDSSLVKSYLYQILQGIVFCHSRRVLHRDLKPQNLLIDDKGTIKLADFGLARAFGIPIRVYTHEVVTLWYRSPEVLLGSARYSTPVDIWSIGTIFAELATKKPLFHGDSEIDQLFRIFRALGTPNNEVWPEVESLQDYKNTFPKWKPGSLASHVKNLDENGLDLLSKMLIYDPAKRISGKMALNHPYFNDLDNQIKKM
Chain of CDK1/cyclin A2 (P20248 whole entry partner): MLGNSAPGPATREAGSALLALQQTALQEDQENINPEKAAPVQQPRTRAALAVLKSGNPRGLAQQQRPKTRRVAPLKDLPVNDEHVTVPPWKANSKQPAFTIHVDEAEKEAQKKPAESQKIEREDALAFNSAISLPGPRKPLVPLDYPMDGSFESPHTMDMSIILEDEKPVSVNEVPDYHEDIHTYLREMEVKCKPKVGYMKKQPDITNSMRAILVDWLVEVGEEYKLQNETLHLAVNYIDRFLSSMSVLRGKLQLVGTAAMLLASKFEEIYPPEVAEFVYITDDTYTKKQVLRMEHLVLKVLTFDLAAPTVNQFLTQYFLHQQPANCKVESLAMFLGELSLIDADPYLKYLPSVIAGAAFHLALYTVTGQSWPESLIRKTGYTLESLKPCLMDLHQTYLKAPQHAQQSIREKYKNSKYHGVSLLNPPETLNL
Procedure: as §1, §2

CDC7/DBF4 = CDC7/DBF4 (Homo sapiens, UniProt O00311)
Procedure: as §1, §2

BMPR1A (ALK3) = BMPR1A (ALK3) (Homo sapiens, UniProt P36894)
Procedure: as §1, §2

EPHA8 = EPHA8 (Homo sapiens, UniProt P29322)
Procedure: as §1, §2

CDK11 (Inactive) = CDK11 (Inactive) (Homo sapiens, UniProt Q9BWU1)
Procedure: as §1, §2

MAPK10 (JNK3) = MAPK10 (JNK3) (Homo sapiens, UniProt P53779)
Chain of MAPK10 (JNK3) (P53779 whole entry): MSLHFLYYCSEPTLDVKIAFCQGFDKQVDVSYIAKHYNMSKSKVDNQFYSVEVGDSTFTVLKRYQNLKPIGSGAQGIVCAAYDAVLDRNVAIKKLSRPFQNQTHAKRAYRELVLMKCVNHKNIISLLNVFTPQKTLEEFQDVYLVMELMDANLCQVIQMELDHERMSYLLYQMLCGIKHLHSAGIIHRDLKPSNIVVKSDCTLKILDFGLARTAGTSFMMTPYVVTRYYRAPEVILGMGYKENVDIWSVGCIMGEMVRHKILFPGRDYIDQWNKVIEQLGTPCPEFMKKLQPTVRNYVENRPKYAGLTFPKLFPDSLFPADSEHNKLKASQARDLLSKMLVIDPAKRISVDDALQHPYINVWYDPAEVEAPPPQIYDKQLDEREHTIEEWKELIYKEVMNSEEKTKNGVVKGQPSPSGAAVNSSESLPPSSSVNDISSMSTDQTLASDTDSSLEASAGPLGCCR
Procedure: as §1, §2

DAPK2 = DAPK2 (Homo sapiens, UniProt Q9UIK4)
Procedure: as §1, §2

MLCK (MLCK2) = MLCK (MLCK2) (Homo sapiens, UniProt Q9H1R3)
Procedure: as §1, §2

CDK8/cyclin C = CDK8/cyclin C (Homo sapiens, UniProt P49336)
Procedure: as §1, §2

SRC N1 = SRC N1 (Homo sapiens, UniProt P12931)
Procedure: as §1, §2

DAPK1 = DAPK1 (Homo sapiens, UniProt P53355)
Procedure: as §1, §2

PIK3CD = PIK3CD (Homo sapiens, UniProt O00329)
Procedure: as §1, §2

TGFBR2 = TGFBR2 (Homo sapiens, UniProt P37173)
Procedure: as §1, §2

STK17A (DRAK1) = STK17A (DRAK1) (Homo sapiens, UniProt Q9UEE5)
Chain of STK17A (DRAK1) (Q9UEE5 whole entry): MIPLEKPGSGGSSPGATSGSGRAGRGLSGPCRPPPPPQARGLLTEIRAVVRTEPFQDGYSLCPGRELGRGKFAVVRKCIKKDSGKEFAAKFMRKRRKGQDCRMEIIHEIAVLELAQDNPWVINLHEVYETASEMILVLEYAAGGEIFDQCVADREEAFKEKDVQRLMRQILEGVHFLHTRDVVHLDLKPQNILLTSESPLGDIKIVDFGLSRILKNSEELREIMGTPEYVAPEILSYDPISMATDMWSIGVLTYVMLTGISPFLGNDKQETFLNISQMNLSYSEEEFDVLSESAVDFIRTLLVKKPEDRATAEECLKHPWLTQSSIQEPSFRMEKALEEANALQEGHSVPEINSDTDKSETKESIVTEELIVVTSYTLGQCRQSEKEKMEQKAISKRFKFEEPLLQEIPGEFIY
Procedure: as §1, §2

PAK7 (KIAA1264) = PAK7 (KIAA1264) (Homo sapiens, UniProt Q9P286)
Chain of PAK7 (KIAA1264) (Q9P286 whole entry): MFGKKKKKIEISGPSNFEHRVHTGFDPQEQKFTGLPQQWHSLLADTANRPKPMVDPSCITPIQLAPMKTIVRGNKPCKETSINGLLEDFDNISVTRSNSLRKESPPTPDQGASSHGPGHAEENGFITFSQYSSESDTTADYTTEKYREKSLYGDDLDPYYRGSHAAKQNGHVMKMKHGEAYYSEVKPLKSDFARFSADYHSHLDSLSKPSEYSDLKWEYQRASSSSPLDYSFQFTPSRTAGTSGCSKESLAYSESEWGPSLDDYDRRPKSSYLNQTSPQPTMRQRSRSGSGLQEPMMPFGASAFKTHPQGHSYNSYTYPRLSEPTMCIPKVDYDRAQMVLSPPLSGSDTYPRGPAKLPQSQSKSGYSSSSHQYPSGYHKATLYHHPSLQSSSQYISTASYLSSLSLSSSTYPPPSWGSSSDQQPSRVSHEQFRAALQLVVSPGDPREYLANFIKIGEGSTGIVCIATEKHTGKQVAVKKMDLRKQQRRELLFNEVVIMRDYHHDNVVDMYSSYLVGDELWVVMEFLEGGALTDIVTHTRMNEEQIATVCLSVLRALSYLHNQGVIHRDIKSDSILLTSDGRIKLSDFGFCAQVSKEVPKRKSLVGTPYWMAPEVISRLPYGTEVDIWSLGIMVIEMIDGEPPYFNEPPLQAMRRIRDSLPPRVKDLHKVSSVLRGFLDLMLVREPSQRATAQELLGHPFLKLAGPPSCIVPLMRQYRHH
Procedure: as §1, §2

NUAK2 = NUAK2 (Homo sapiens, UniProt Q9H093)
Procedure: as §1, §2

CLK4 = CLK4 (Homo sapiens, UniProt Q9HAZ1)
Procedure: as §1, §2

ACVRL1 (ALK1) = ACVRL1 (ALK1) (Homo sapiens, UniProt P37023)
Procedure: as §1, §2

TTK = TTK (Homo sapiens, UniProt P33981)
Procedure: as §1, §2

KIT T670E = KIT T670E (Homo sapiens, UniProt P10721, T670E)
Chain of KIT T670E (P10721 26-976 T670E): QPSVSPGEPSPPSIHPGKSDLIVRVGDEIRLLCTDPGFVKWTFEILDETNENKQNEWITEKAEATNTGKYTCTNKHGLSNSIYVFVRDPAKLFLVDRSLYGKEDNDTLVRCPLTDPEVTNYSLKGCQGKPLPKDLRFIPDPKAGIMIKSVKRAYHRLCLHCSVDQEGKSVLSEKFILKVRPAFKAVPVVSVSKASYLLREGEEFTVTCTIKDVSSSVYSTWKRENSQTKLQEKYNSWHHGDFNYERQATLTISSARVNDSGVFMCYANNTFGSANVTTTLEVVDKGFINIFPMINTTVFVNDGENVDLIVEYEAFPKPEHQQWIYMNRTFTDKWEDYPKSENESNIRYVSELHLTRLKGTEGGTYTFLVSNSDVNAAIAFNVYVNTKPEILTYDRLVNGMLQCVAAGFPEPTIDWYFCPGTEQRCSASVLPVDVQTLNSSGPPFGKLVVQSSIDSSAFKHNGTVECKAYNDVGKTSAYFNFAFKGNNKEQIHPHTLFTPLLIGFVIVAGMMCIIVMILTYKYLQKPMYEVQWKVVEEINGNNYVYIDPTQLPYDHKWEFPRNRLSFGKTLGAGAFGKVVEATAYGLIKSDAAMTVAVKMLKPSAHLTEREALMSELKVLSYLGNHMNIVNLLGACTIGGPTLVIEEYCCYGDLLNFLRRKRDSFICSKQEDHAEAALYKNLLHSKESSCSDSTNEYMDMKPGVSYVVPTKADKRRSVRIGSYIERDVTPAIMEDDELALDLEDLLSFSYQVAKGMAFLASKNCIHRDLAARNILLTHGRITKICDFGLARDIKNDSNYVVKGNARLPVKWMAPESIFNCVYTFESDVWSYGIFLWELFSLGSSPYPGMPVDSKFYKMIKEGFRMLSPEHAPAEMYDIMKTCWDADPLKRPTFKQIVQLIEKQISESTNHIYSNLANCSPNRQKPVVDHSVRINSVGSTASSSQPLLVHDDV
Procedure: as §1, §2

ICK = ICK (Homo sapiens, UniProt Q9UPZ9)
Chain of ICK (Q9UPZ9 whole entry): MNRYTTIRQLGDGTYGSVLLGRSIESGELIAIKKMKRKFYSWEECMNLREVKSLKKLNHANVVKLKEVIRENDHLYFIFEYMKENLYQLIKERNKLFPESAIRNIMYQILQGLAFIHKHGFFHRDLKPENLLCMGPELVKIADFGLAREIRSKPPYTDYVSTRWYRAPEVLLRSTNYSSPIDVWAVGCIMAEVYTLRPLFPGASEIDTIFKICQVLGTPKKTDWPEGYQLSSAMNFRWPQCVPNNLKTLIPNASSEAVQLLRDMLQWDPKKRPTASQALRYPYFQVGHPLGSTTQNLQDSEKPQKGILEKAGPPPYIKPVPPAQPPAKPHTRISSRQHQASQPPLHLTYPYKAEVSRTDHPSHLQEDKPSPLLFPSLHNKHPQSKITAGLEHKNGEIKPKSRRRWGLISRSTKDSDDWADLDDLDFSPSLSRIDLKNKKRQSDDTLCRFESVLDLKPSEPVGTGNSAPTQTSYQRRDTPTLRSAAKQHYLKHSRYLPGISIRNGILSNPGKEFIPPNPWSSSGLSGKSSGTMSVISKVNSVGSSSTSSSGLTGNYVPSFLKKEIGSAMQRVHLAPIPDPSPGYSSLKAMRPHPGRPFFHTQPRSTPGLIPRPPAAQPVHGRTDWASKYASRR
Procedure: as §1, §2

STK17B (DRAK2) = STK17B (DRAK2) (Homo sapiens, UniProt O94768)
Procedure: as §1, §2

GRK5 = GRK5 (Homo sapiens, UniProt P34947)
Procedure: as §1, §2

DYRK2 = DYRK2 (Homo sapiens, UniProt Q92630)
Chain of DYRK2 (Q92630 whole entry): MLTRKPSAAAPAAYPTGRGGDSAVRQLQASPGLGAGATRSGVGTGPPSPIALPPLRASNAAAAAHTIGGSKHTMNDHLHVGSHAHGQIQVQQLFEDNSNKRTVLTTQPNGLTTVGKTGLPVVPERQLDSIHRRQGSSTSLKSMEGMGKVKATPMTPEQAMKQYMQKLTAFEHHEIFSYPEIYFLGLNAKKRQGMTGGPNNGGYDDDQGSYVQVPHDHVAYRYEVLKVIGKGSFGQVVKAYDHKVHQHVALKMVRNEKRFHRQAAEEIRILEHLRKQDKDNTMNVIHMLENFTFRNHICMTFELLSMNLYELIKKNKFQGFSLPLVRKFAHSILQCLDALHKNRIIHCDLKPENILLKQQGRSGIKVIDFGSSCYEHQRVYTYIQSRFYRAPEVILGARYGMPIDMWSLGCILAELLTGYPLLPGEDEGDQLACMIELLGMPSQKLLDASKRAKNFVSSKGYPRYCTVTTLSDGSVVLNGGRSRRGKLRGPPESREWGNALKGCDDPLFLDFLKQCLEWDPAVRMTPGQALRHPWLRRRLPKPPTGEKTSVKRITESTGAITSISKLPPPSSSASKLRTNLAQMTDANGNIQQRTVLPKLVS
Procedure: as §1, §2

KIT D820E = KIT D820E (Homo sapiens, UniProt P10721, D820E)
Chain of KIT D820E (P10721 26-976 D820E): as the sequence (P10721 26-976 T670E) above, with E645T, D795E counted along it
Procedure: as §1, §2

DYRK3 = DYRK3 (Homo sapiens, UniProt O43781)
Procedure: as §1, §2

SGK2 = SGK2 (Homo sapiens, UniProt Q9HBY8)
Chain of SGK2 (Q9HBY8 whole entry): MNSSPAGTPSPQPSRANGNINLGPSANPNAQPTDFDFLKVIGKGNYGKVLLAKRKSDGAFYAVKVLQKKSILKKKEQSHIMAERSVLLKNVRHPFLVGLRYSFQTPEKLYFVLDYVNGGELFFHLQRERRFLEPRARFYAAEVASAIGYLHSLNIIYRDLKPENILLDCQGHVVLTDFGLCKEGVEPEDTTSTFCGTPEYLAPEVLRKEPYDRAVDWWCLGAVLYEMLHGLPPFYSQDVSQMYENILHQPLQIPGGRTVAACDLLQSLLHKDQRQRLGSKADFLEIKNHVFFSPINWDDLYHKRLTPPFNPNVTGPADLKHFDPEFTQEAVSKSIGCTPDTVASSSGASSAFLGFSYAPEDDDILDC
Procedure: as §1, §2

STK38 (NDR) = STK38 (NDR) (Homo sapiens, UniProt Q15208)
Procedure: as §1, §2

STK38L (NDR2) = STK38L (NDR2) (Homo sapiens, UniProt Q9Y2H1)
Procedure: as §1, §2

GRK4 = GRK4 (Homo sapiens, UniProt P32298)
Procedure: as §1, §2

MYLK (MLCK) = MYLK (MLCK) (Homo sapiens, UniProt Q15746)
Procedure: as §1, §2

For `CCCCCc1cc2cc(O)cc(Oc3c(O)cc(O)cc3CCCCC)c2c(=O)o1` [BKT300], the “% Inhibition” value (PIK3CA) was 64%, the “% Inhibition” value (MAP4K2 (GCK)) was 48% and the “% Inhibition” value (CDK1/cyclin A2) was 45%. For the same compound, the “% Inhibition” value (CDC7/DBF4) was 53%, the “% Inhibition” value (BMPR1A (ALK3)) was 58% and the “% Inhibition” value (EPHA8) was 50%. The “% Inhibition” value (CDK11 (Inactive)) was 57%, the “% Inhibition” value (MAPK10 (JNK3)) was 49% and the “% Inhibition” value (DAPK2) was 65%. The “% Inhibition” value (MLCK (MLCK2)) was 58%, the “% Inhibition” value (CDK8/cyclin C) was 64% and the “% Inhibition” value (SRC N1) was 41%. For the same compound, the “% Inhibition” value (DAPK1) was 43%, the “% Inhibition” value (PIK3CD) was 77% and the “% Inhibition” value (TGFBR2) was 43%. For the same compound, the “% Inhibition” value (STK17A (DRAK1)) was 48%, the “% Inhibition” value (PAK7 (KIAA1264)) was 40% and the “% Inhibition” value (NUAK2) was 89%. The “% Inhibition” value (CLK4) was 73%, the “% Inhibition” value (ACVRL1 (ALK1)) was 47% and the “% Inhibition” value (TTK) was 52%. For the same compound, the “% Inhibition” value (KIT T670E) was 51%, the “% Inhibition” value (ICK) was 41% and the “% Inhibition” value (STK17B (DRAK2)) was 107%. The “% Inhibition” value (GRK5) was 65%, the “% Inhibition” value (DYRK2) was 62% and the “% Inhibition” value (KIT D820E) was 42%. The “% Inhibition” value (DYRK3) was 47%, the “% Inhibition” value (SGK2) was 43% and the “% Inhibition” value (STK38 (NDR)) was 41%. For the same compound, the “% Inhibition” value (STK38L (NDR2)) was 45%, the “% Inhibition” value (GRK4) was 63% and the “% Inhibition” value (MYLK (MLCK)) was 63%.
